Source: PMC8136874, “The entry reaction of the plant shikimate pathway is subjected to highly complex metabolite-mediated regulation” (The Plant Cell, 2021)

How the values were obtained:
AthDHS2 = target: T1, AthDHS2 (Arabidopsis thaliana, UniProt Q00218); experiment: DHS enzymatic activity assay with recombinant AthDHS2; assay type: biochemical; details: for effect on AthDHS2 activity (in words) / inhibition of AthDHS2 activity: 1 mM effector; for k cat / K m / V max: various concentrations of the substrate; for k cat: E4P values assume no substrate inhibition; for K m / V max: E4P values estimated from Lineweaver–Burk plots because of substrate inhibition
T1 construct: AthDHS2; residues 34–507; hexa-histidine; made in house; host or cells: E. coli Rosetta2 (DE3), pET28a
T1 sequence (Q00218 34-507): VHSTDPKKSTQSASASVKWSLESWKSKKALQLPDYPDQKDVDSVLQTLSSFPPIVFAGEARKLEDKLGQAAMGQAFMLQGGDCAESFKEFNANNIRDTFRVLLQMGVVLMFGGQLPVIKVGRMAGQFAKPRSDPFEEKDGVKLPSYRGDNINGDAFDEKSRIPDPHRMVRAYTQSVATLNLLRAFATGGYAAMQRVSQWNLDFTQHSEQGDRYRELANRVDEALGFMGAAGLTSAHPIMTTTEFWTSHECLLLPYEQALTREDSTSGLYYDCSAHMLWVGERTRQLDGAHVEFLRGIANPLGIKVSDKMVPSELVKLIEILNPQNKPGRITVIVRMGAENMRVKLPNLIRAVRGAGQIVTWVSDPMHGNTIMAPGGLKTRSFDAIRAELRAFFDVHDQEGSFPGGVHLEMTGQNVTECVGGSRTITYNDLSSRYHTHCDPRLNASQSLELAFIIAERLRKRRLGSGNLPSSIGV

AthDHS1 = target: T2, AthDHS1 (Arabidopsis thaliana, UniProt P29976); experiment: DHS enzymatic activity assay with recombinant AthDHS1; assay type: biochemical; details: for effect on AthDHS1 activity (in words): 1 mM effector; for K m / V max / k cat: various concentrations of the substrate, means ± SEM, n = 3
T2 construct: AthDHS1; residues 49–525; hexa-histidine; made in house; host or cells: E. coli Rosetta2 (DE3), pET28a
T2 sequence (P29976 49-525): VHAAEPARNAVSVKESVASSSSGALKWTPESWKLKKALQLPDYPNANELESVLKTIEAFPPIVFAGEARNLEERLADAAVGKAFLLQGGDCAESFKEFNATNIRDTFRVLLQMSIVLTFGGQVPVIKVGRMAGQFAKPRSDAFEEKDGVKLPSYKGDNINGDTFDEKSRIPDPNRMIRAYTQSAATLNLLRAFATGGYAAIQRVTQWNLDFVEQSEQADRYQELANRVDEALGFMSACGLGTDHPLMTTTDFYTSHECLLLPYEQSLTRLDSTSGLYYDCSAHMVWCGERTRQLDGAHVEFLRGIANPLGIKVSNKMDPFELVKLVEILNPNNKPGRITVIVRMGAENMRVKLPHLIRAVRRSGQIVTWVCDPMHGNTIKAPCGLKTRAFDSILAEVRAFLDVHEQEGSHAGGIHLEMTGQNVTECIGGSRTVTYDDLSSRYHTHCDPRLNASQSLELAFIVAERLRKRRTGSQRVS
Experimental: (§1) Unless otherwise noted, DHS enzymatic activity was monitored as previously described ([Liu et al., 2008]), with several optimizations for high-throughput assays with eight-strip PCR tubes and a thermal cycler. The enzyme solution (7.7 µL) containing 50 mM HEPES (pH 7.4) was preincubated with an effector molecule(s) at room temperature for 10 min. For assays using recombinant protein and enzyme fraction isolated from plant leaves, 0.01–0.05 µg and approximately 50 µg of proteins were used, respectively. After adding 0.5 µL of 0.1 M DTT, the samples were further incubated at room temperature for 15 min. […] The enzyme reaction was started by adding 6.8 µL of the substrate solution, then incubated at 37°C for 20 min, and terminated by adding 30 µL of 0.6 M trichloroacetic acid. After brief centrifugation, 5 µL of 200 mM NaIO4 (sodium meta-periodate) in 9 N H3PO4 was added to oxidize the enzymatic product and incubate at 25°C for 20 min. To stop the oxidation reaction, 20 µL of 0.75 M NaAsO2 (sodium arsenite), which was dissolved in 0.5 M Na2SO4 and 0.05 M H2SO4, was immediately mixed. After 5 min of incubation at room temperature, one-third of the sample solution was transferred to a new tube to be mixed with 50 µL of 40 mM thiobarbituric acid and incubated at 99°C for 15 min in a thermal cycler. Developed pink chromophore was extracted by putting the final solutions with 600 µL of cyclohexanone in eight-strip solvent-resistant plastic tubes, mixing vigorously and centrifuging them at 4,500 × g for 3 min to separate water- and cyclohexanone-based layers. The absorbance of the pink supernatant was read at 549 nm with the microplate reader (Infinite 200 PRO, TECAN, Männedorf, Switzerland) to calculate DAHP production with the molar extinction coefficient at 549 nm (ε = 549 nm) of 4.5 × 10^4/M/cm. Reaction mixtures with boiled enzyme or without any substrates were run in parallel and used as negative controls to estimate the background signal for recombinant enzymes or enzymatic fraction from plant tissues, respectively.
(§2) For determination of kinetic parameters, the data of enzymatic activities measured in the presence of various concentration of substrates were calculated with the Michaelis–Menten equation in Graphpad Prism 6 (GraphPad Software, San Diego, CA, USA).

AthDHS3 = AthDHS3 (Arabidopsis thaliana, UniProt Q9SK84); experiment: DHS enzymatic activity assay with recombinant AthDHS3; assay type: biochemical; details: for V max: various concentrations of the substrate, means ± SEM, n = 3
AthDHS3, sequence (Q9SK84 entry or part of it): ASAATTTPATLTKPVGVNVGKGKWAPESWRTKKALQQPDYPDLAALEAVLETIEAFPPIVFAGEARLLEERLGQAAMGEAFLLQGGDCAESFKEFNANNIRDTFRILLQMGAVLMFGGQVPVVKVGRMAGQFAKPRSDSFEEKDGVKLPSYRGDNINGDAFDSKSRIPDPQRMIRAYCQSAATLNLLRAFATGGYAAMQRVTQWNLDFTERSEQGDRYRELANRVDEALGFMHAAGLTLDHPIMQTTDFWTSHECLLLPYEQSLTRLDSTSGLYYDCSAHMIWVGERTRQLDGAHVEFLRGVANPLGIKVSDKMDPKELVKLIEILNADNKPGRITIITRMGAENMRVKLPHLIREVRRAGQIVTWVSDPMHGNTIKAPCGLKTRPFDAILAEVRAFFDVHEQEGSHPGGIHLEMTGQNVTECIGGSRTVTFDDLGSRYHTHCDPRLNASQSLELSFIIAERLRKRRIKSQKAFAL
Experimental: as §1, §2

[1] = test system: AthDHS1 and AthDHS2 mixtures; experiment: DHS assay using mixtures of AthDHS1 and AthDHS2 recombinant enzymes; assay type: biochemical, Arabidopsis thaliana; details: 1 mM effector; molar ratios 0, 0.25, 0.5, 0.75, 1
Experimental: Next, we thought that the presence of non-inhibited DHS isoforms (e.g. AthDHS1) may affect the AAA sensitivity of AthDHS2, given that AthDHSs are known to function as tetrameric or dimeric forms ([Suzich et al., 1985]; [Pinto et al., 1986]; [Webby et al., 2005]). To test this, the recombinant enzymes of AAA non-inhibited AthDHS1 and AAA-inhibited AthDHS2 were mixed with different ratios (0, 0.25, 0.5, 0.75, and 1) and DHS activity assays were conducted with different inhibitors. Based on the kinetic parameters and the regulatory behaviors of individual AthDHSs, the expected level of DHS activity was first calculated and plotted (dotted lines in Figure 5, D, see the “Materials and methods” section). […] Similar results were obtained for the AthDHS2 and AthDHS3 mixture (Figure 5, E).
Unless otherwise noted, DHS enzymatic activity was monitored as previously described ([Liu et al., 2008]), with several optimizations for high-throughput assays with eight-strip PCR tubes and a thermal cycler. The enzyme solution (7.7 µL) containing 50 mM HEPES (pH 7.4) was preincubated with an effector molecule(s) at room temperature for 10 min. For assays using recombinant protein and enzyme fraction isolated from plant leaves, 0.01–0.05 µg and approximately 50 µg of proteins were used, respectively. After adding 0.5 µL of 0.1 M DTT, the samples were further incubated at room temperature for 15 min. […] The enzyme reaction was started by adding 6.8 µL of the substrate solution, then incubated at 37°C for 20 min, and terminated by adding 30 µL of 0.6 M trichloroacetic acid. After brief centrifugation, 5 µL of 200 mM NaIO4 (sodium meta-periodate) in 9 N H3PO4 was added to oxidize the enzymatic product and incubate at 25°C for 20 min. […] The absorbance of the pink supernatant was read at 549 nm with the microplate reader (Infinite 200 PRO, TECAN, Männedorf, Switzerland) to calculate DAHP production with the molar extinction coefficient at 549 nm (ε = 549 nm) of 4.5 × 10^4/M/cm. […]

[2] = test system: root growth of Arabidopsis Col-0 and dhs mutants; experiment: Chemical feeding experiment, root length of 10-day-old seedlings; assay type: in vivo, Arabidopsis thaliana; details: for effect of the added compound on Trp-mediated root growth inhibition of dhs3: media with 300 µM Trp; for effect of the added compound on Trp-mediated root growth inhibition of dhs3 / effect of the added compound on Tyr-mediated root growth inhibition of dhs1: AAAs added at 300 µM, shikimate at 500 µM; for effect of the added compound on Tyr-mediated root growth inhibition of dhs1: media with 300 µM Tyr
Experimental: Chemical feeding experiments were carried out as described previously ([de Oliveira et al., 2019]) with some modifications. Seedlings were grown on agar plates containing 0.5 MS with 1% sucrose, 0.8% agar, and 2.5 mM MES at pH 5.7 in the growth chamber where we grew other plants in soil. AAAs and/or shikimate were added to autoclaved media after cooling down to temperatures below 55°C. Plants were grown on the same plate side by side to minimize environmental effects, and multiple plates were prepared to obtain replications. Root lengths of 10-day-old seedlings were quantified by ImageJ.

[3] = test system: shikimate accumulation in Col-0 and dhs mutants; experiment: Shikimate content with and without Tyr and/or glyphosate treatment; assay type: in vivo, Arabidopsis thaliana; details: 250 µM glyphosate, 2 days; for increase of shikimate accumulation after treatment: plants grown with 300 µM Tyr
Experimental: Approximately 50–80 mg of fully expanded mature leaves were pooled from multiple plants at the same developmental stages and ground in 800 µL of extraction buffer (v/v 2:1 of methanol and chloroform with 2 µg/mL isovitexin [Millipore-Sigma], 100 µM norvaline [Thermo Fisher Scientific], and 1.25 µg/mL Tocol [Matreya LLC, State College, PA, USA] for internal standards for soluble metabolite analysis by LC–MS and GC–MS and tocopherol analysis by GC–MS, respectively), using 1600 MiniG Tissue Homogenizer (SPEX SamplePrep, Metuchen, USA) and 3-mm glass beads. After adding 600 µL of H2O and then 250 µL of chloroform, polar phase containing amino acids, and non‐polar phase containing tocopherols were separated by centrifugation, dried in new tubes. To detect Trp and AAA-derived metabolites, LC–MS analysis was carried out as previous described with some modification ([Alseekh et al., 2015]). The dried metabolites were resuspended in 70 µL of 80% LC–MS-grade methanol. Two microliters of the sample was injected onto a HSS T3 C18 reversed phase column (100 × 2.1 mm i.d., 1.8-μm particle size; Waters, Milford, CT, USA) and eluted using a 20-min gradient comprising 0.1% formic acid in LC–MS-grade water (solvent A) and 0.1% formic acid in LC–MS-grade acetonitrile (solvent B) at a flow rate of 0.4 mL/min and column temperature of 40°C. The binary linear gradient with following ratios of solvent B was used: 0–1 min, 1%; 1–13 min, 1%–35%; 13–14.5 min, 35%–70%; 14.5–15.5 min, 70%–99%, 15.5–17 min, 99%; 17–17.5 min, 99%–[…]; 17.5–20 min, 1%. The spectra were recorded using full scan mode of negative ion detection, covering a mass range from m/z 100 to 1,500. The resolution was set to 25,000 and the maximum scan time was set to 250 ms. The sheath gas was set to a value of 60, while the auxiliary gas was set to 35. The transfer capillary temperature was set to 150°C, while the heater temperature was adjusted to 300°C. The spray voltage was fixed at 3 kV, with a capillary voltage and a skimmer voltage of 25 and 15 V, respectively. Retention times, MS spectra, and associated peak intensities were extracted from the raw files using the Xcalibur software (Thermo Fisher Scientific). […] For anthocyanin quantification, the polar phase isolated for amino acid analysis was diluted 10 times with water in a new tube. […] Shikimate level was spectrometrically determined based on previous literatures ([Shaner et al., 2005]; [Sharkhuu et al., 2014]). […] After stopping the reaction by adding 100 µL of a termination solution containing 0.6 N sodium hydroxide and 0.22 M sodium sulfite, the absorption at 380 nm was immediately measured with the microplate reader. Shikimate concentration was determined by comparing with a dilution series of the shikimate standards.

## O=C(/C=C/c1ccc(O)c(O)c1)OC1CC(C(=O)O)=CC(O)C1O (stereo not shown) [Caffeoyl shikimate]
AthDHS2
  effect on AthDHS2 activity (in words): fully inhibited
AthDHS1
  effect on AthDHS1 activity (in words): fully inhibited
AthDHS3; 1 mM effector
  reduction of AthDHS3 activity: 70%

## O=C[C@H](O)[C@H](O)COP(=O)(O)O [E4P, D-erythrose 4-phosphate]
AthDHS2; substrate inhibition
  substrate concentration beyond which AthDHS2 was inhibited: > 4 mM
AthDHS2
  k cat: 11.8 ± 1.6 s⁻¹
  K m: 1755 ± 400 µM
  V max: 12.9 ± 1.8 nmol/µM/min
AthDHS1
  K m: 2842 ± 910 µM
  V max: 17.8 ± 0.59 nmol/µM/min
  k cat: 16.4 ± 0.54 s⁻¹
AthDHS3
  V max: 9.92 ± 0.31 nmol/µM/min

## C=C(OP(=O)(O)O)C(=O)O [PEP, phosphoenolpyruvate]
AthDHS2
  k cat: 8.95 ± 0.44 s⁻¹
  K m: 360 ± 34 µM
  V max: 9.81 ± 0.48 nmol/µM/min
AthDHS1
  K m: 250 ± 53 µM
  V max: 15.3 ± 0.62 nmol/µM/min
  k cat: 14 ± 0.57 s⁻¹
AthDHS3
  V max: 9.15 ± 0.27 nmol/µM/min

## N[C@@H](Cc1ccccc1)C(=O)O [Phe, L-phenylalanine]
[1]
  observed DHS activity of the enzyme mixtures versus theoretically calculated activity: matched with the theoretical plot
AthDHS2; 1 µM to at least 5 mM tested
  concentration beyond which AthDHS2 activity is slightly activated: > 5 mM
AthDHS2
  effect on AthDHS2 activity (in words): did not significantly affect
AthDHS1
  effect on AthDHS1 activity (in words): did not significantly affect
AthDHS3; 1 mM effector
  effect on AthDHS3 activity (in words): did not significantly affect
[2]; Arabidopsis thaliana, read-out: IC50 of root growth suppression
  IC50: ~550 µM
[2]; all dhs mutants, similarly to Col-0
  concentration that suppressed root growth: > 300 µM
[2]
  effect of the added compound on Trp-mediated root growth inhibition of dhs3: not recovered
  effect of the added compound on Tyr-mediated root growth inhibition of dhs1: not sufficient

## N[C@@H](CC(=O)O)C(=O)O [aspartate]
AthDHS1
  effect on AthDHS1 activity (in words): did not affect

## O=C(O)/C=C/c1ccccc1 [cinnamate]
AthDHS2
  effect on AthDHS2 activity (in words): no effects
AthDHS1
  effect on AthDHS1 activity (in words): no effects
AthDHS3; 1 mM effector
  effect on AthDHS3 activity (in words): no effects

## COc1cc(/C=C/C(=O)O)ccc1O [ferulate]
AthDHS2
  effect on AthDHS2 activity (in words): no effects
AthDHS1
  effect on AthDHS1 activity (in words): no effects
AthDHS3; 1 mM effector
  effect on AthDHS3 activity (in words): no effects

## O=C(O)CNCP(=O)(O)O [glyphosate]
[3]; dhs2
  increase of shikimate accumulation after treatment: five-fold
[3]; other genotypes
  increase of shikimate accumulation after treatment: two–three-fold
[3]; without Tyr, similar between genotypes
  effect on shikimate levels: increased shikimate levels

## O=C(O)/C=C/c1ccc(O)cc1 [p-coumarate]
AthDHS2
  effect on AthDHS2 activity (in words): no effects
AthDHS1
  effect on AthDHS1 activity (in words): no effects
AthDHS3; 1 mM effector
  effect on AthDHS3 activity (in words): no effects

## O=C(O)C(=O)CC1(C(=O)O)C=CC(O)C=C1 (stereo not shown) [prephenate]
AthDHS2
  inhibition of AthDHS2 activity: ~25%
AthDHS1
  effect on AthDHS1 activity (in words): did not significantly affect
AthDHS3; 1 mM effector
  effect on AthDHS3 activity (in words): did not significantly affect

## O=C(O)C1=C[C@@H](O)[C@@H](O)[C@H](O)C1 [shikimate]
AthDHS2
  inhibition of AthDHS2 activity: approximately 30%
AthDHS1
  effect on AthDHS1 activity (in words): did not significantly affect
AthDHS3; 1 mM effector
  effect on AthDHS3 activity (in words): did not significantly affect
[2]; dhs mutants, up to 1000 µM
  sensitivity of root growth: none of the dhs mutants showed sensitivity
[2]
  effect of the added compound on Trp-mediated root growth inhibition of dhs3: no effect
  effect of the added compound on Tyr-mediated root growth inhibition of dhs1: no effect

## COc1cc(/C=C/C(=O)O)cc(OC)c1O [sinapate]
AthDHS2
  effect on AthDHS2 activity (in words): no effects
AthDHS1
  effect on AthDHS1 activity (in words): no effects
AthDHS3; 1 mM effector
  effect on AthDHS3 activity (in words): no effects
